System: SARS-CoV-2 M protein level
Assay type: cell-based, human

| Compound | decrease in M protein levels induced by SQSTM1 | IMβ3-5-promoted degradation of M, VP2 and PB1-F2 |
| --- | --- | --- |
| COC[C@H]1OC(=O)c2coc3c2[C@@]1(C)C1=C(C3=O)[C@@H]2CCC(=O)[C@@]2(C)C[C@H]1OC(C)=O [wortmannin] | rescued | – |
| CCN(CC)CCCC(C)Nc1ccnc2cc(Cl)ccc12 (stereo not drawn) [CQ, chloroquine] | rescued | blocked |

From article PMC11484861 (Nature Communications, 2024)
